Several values for one entry are separate records, joined by “and”; a condition that tells them apart may be missing. Equal entries are not always repeated.
Key:
NEP = NEP (Homo sapiens, UniProt P08473); details: in vivo; cited from earlier work
[1] = test system: rat model of infrarenal abdominal aorta-vena cava fistula (AV fistula); test: AV fistula model: cumulative urinary sodium excretion; assay type: in vivo, Sprague Dawley rats; details: PO; for Urinary sodium (cumulative sodium excretion): 7 days of treatment, AV fistula rats; for % change in urinary sodium: 7 days, against vehicle control
Text: Sprague Dawley rats will be used in the study at the age to 6-8 weeks. A midline abdominal incision will be made under anesthesia to expose the vena cava and abdominal aorta distal to the origin of the renal arteries. A longitudinal incision will be performed in the outer wall of the vena cava. The common wall between the aorta and vena cava will be grabbed through the incision and a fistula (1.0-1.2 mm outer diameter) will be created between the vena cava and aorta. The opening of the outer wall of the vena cava will be closed with a continuous suture. After the surgical procedure, the animals will be allowed to recover with daily monitoring of urine output and sodium excretion in metabolic cages. A matched group of sham-operated rats will serve as controls. After a week of surgical operation, rats will be divided into subgroups according to their daily absolute rate of sodium excretion. Fimasartan or its pharmaceutically acceptable salt, or Sacubitril or its pharmaceutically acceptable salt or their combination will be taken as a low dose, middle dose, and high dose group. Animals will be treated daily for four weeks with weekly measurement of blood pressure. Additionally, sodium excretion and creatinine clearance will be measured twice weekly. In the rat model of infrarenal abdominal aorta-vena cava fistula (AV fistula), workload on heart increases by sustained volume overload, this reduces sodium excretion and leads to cardiac hypertrophy. […] Sprague Dawley rats in these experimental groups were treated daily by gavage for seven days and urine volume and sodium excretion were daily measured. Rats treated with vehicle served as controls. Rats with sham operation or animals with arterio-venous fistula treated with vehicle served as controls. Animals were randomized based on 24 h urinary sodium excretion. Animals with <100 μEq/24 h urinary sodium excretion were selected in study except sham control animals. Treatment was initiated for 7 days with daily measurement of sodium excretion and results were expressed as cumulative urinary sodium excretion. […] These observations indicate that combination of fimasartan and sacubitril reduce volume overload associated with AV Fistula. After completion of the treatment period, mean arterial blood pressure was evaluated from animals from different experimental groups.

[2] = test system: rat model of infrarenal abdominal aorta-vena cava fistula (AV fistula); test: AV fistula model: mean arterial blood pressure; assay type: in vivo, Sprague Dawley rats; details: for % change in meal arterial pressure / Mean arterial pressure: PO; for % change in meal arterial pressure: 7 days, against vehicle control; for Mean arterial pressure: after 7 days of treatment, AV fistula rats; for reduction of mean arterial blood pressure: after treatment period, in comparison to vehicle control, given as reduction
Text: Sprague Dawley rats will be used in the study at the age to 6-8 weeks. A midline abdominal incision will be made under anesthesia to expose the vena cava and abdominal aorta distal to the origin of the renal arteries. A longitudinal incision will be performed in the outer wall of the vena cava. The common wall between the aorta and vena cava will be grabbed through the incision and a fistula (1.0-1.2 mm outer diameter) will be created between the vena cava and aorta. The opening of the outer wall of the vena cava will be closed with a continuous suture. After the surgical procedure, the animals will be allowed to recover with daily monitoring of urine output and sodium excretion in metabolic cages. A matched group of sham-operated rats will serve as controls. After a week of surgical operation, rats will be divided into subgroups according to their daily absolute rate of sodium excretion. Fimasartan or its pharmaceutically acceptable salt, or Sacubitril or its pharmaceutically acceptable salt or their combination will be taken as a low dose, middle dose, and high dose group. Animals will be treated daily for four weeks with weekly measurement of blood pressure. Additionally, sodium excretion and creatinine clearance will be measured twice weekly. In the rat model of infrarenal abdominal aorta-vena cava fistula (AV fistula), workload on heart increases by sustained volume overload, this reduces sodium excretion and leads to cardiac hypertrophy. Rats receiving fimasartan (5, 10 and 30 mg/kg/day), sacubitril (25, 50 and 75 mg/kg/day) and combination (fimasartan 10 mg/kg and sacubitril 50 mg/kg) were evaluated in AV fistula model. Sprague Dawley rats in these experimental groups were treated daily by gavage for seven days and urine volume and sodium excretion were daily measured. Rats treated with vehicle served as controls. Rats with sham operation or animals with arterio-venous fistula treated with vehicle served as controls. Animals were randomized based on 24 h urinary sodium excretion. Animals with <100 μEq/24 h urinary sodium excretion were selected in study except sham control animals. Treatment was initiated for 7 days with daily measurement of sodium excretion and results were expressed as cumulative urinary sodium excretion. […] These observations indicate that combination of fimasartan and sacubitril reduce volume overload associated with AV Fistula. After completion of the treatment period, mean arterial blood pressure was evaluated from animals from different experimental groups.

[3] = test system: five sixth nephrectomized rats; test: Subtotal nephrectomy induced hypertension: blood pressure; assay type: in vivo, Sprague Dawley rats; details: four weeks
Description: Fimasartan 10 mg/kg and Sacubitril 50 mg/kg and combination were administered for 4 weeks. Prior to initiation, Sprague Dawley rats were randomized based on their systolic blood pressure after one week of recovery. These experimental groups were treated daily by gavage for four weeks and their weekly blood pressure was measured. Rats treated with vehicle served as controls and sham operated animals treated with vehicle served as sham controls. […] Experimental model of acute cardiac failure is characterized by several features that closely mimic the pathophysiological consequences of CHF in patients, includes the characteristic neurohumoral activation, decrease in renal perfusion, sodium retention and cardiac hypertrophy (J Biomed Biotechnol. 2011; 2011: 729497). […] Five sixth nephrectomy represent a model of hypertension in rats and in clinic it has been observed that loss of renal mass is associated with increased hypertension (APMIS. 1992 December; 100(12):1097-105; International Journal of Urology (2015) 22, 797-804).

NEP, sequence (P08473 whole entry): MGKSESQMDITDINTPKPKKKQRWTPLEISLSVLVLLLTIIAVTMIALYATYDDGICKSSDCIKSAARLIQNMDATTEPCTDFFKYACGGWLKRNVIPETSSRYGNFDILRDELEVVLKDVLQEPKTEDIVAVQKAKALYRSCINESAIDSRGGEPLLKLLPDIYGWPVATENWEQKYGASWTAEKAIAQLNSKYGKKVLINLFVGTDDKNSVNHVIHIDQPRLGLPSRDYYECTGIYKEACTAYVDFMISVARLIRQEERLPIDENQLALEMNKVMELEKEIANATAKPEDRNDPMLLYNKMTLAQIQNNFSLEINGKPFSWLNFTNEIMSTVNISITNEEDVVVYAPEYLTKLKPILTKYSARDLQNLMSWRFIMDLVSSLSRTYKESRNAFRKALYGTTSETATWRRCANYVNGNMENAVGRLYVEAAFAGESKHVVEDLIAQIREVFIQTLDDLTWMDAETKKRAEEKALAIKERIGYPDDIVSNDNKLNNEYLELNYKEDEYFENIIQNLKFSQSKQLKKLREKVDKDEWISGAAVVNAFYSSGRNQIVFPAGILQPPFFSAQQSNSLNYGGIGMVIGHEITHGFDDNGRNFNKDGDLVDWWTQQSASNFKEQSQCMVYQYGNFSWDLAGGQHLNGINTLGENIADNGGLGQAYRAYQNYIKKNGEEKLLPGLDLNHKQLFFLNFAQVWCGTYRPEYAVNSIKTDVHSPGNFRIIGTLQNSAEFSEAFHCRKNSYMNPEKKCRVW

SMILES: COCCOC[C@H](CC1(C(=O)N[C@H]2CC[C@@H](C(=O)O)CC2)CCCC1)C(=O)O [candoxatrilat]
- natriuretic and cyclic GMP responses to a low-dose ANP infusion (NEP): potentiates

SMILES: CCOC(=O)[C@H](C)C[C@@H](Cc1ccc(-c2ccccc2)cc1)NC(=O)CCC(=O)O [Sacubitril, 4-[[(2S,4R)-5-ethoxy-4-methyl-5-oxo-1-(4-phenylphenyl)pentan-2-yl]amino]-4-oxobutanoic acid]
- Urinary sodium (cumulative sodium excretion) ([1]; sacubitril 25 mg/kg): 5185.7 ± 443.7 μeq/24 h
- % change in urinary sodium ([1]; sacubitril 25 mg/kg): 41.9 ± 12.2 %
- % change in urinary sodium ([1]; sacubitril 25 mg/kg, listed as sacubitril): 41.9±12.1%
- Urinary sodium (cumulative sodium excretion) ([1]; sacubitril 50 mg/kg): 6678.7 ± 451.7 μeq/24 h
- % change in urinary sodium ([1]; sacubitril 50 mg/kg): 82.6 ± 13.5 %
- % change in urinary sodium ([1]; sacubitril 50 mg/kg, listed as sacubitril): 82.6±13.5%
- Urinary sodium (cumulative sodium excretion) ([1]; sacubitril 75 mg/kg): 9129.7 ± 449.7 μeq/24 h
- % change in urinary sodium ([1]; sacubitril 75 mg/kg): 150.1 ± 10.4 %
- % change in urinary sodium ([1]; sacubitril 75 mg/kg, listed as sacubitril): 150.1±10.4%
- % change in meal arterial pressure ([2]; sacubitril 50 mg/kg): −8 ± 1.9 %
- Mean arterial pressure ([2]; sacubitril 50 mg/kg): 109.2 ± 2.2 mmHg
- reduction of mean arterial blood pressure ([2]; sacubitril alone (FIG. 2)): 8.0±1.9%
- reduction in blood pressure against vehicle control ([3]; Sacubitril 50 mg/kg daily by gavage): 18.7%

SMILES: CCCCc1nc(C)c(CC(=S)N(C)C)c(=O)n1Cc1ccc(-c2ccccc2-c2nnn[nH]2)cc1 [Fimasartan, 2-n-butyl-5-dimethylaminothiocarbonyl-methyl-6-methyl-3-[[2′-(1H-tetrazol-5-yl)biphenyl-4-yl]methyl]pyrimidin-4(3H)-one]
- Urinary sodium (cumulative sodium excretion) ([1]; fimasartan 5 mg/kg): 4784.8 ± 497.5 μeq/24 h
- % change in urinary sodium ([1]; fimasartan 5 mg/kg): 31.1 ± 13.6 %
- % change in urinary sodium ([1]; fimasartan 5 mg/kg, listed as fimasartan): 31.1±13.6%
- Urinary sodium (cumulative sodium excretion) ([1]; fimasartan 10 mg/kg): 5179.7 ± 451.2 μeq/24 h and 5179.7 ± 443.7 μeq/24 h
- % change in urinary sodium ([1]; fimasartan 10 mg/kg): 41.9 ± 12.2 % and 51.2 ± 11.9 %
- % change in urinary sodium ([1]; fimasartan 10 mg/kg, listed as fimasartan): 41.9±12.2%
- Urinary sodium (cumulative sodium excretion) ([1]; fimasartan 20 mg/kg): 6664.7 ± 448.2 μeq/24 h
- % change in urinary sodium ([1]; fimasartan 20 mg/kg): 82.6 ± 13.1 %
- % change in urinary sodium ([1]; fimasartan 20 mg/kg, listed as fimasartan): 82.6±13.1%
- % change in meal arterial pressure ([2]; fimasartan 10 mg/kg): −5.9 ± 1.9 %
- Mean arterial pressure ([2]; fimasartan 10 mg/kg): 111.7 ± 2.3 mmHg
- reduction of mean arterial blood pressure ([2]; fimasartan alone (FIG. 2)): 5.9±1.9%
- reduction in blood pressure against vehicle control ([3]; Fimasartan 10 mg/kg daily by gavage): 15.9%

— patent US20180311241A1, “PHARMACEUTICAL SYNERGISTIC COMBINATION” (CADILA HEALTHCARE LIMITED, priority 2015, published 2018)
